Results on ten molecules are retold here after patent US20160019374A1, “METHODS FOR ESTABLISHING COMBINATIONS OF KINASE INHIBITORS FOR THE TREATMENT OF MEDICAL CONDITIONS” (SALGOMED, INC., priority 2014, published 2016).

The test system of the first assay is A549 (lung adenocarcinoma). In words: Kinase inhibitor screen, selectivity = IMR-90 to A549 viability ratio (ATPlite 1 Step). The following applies: single drugs at 1000 nM, 72 hours, 244 KIs screened; FIG. 2. On the technique in general: In ATP-based viability assays light output follows the ATP content of the culture.
Protocol: Cell lines IMR-90 (normal lung fibroblast) and A549 (lung adenocarcinoma) were cultured in RPMI 1640 (Hyclone) supplemented with 10% Canadian characterized fetal bovine serum (Hyclone), 1% 200 mM L-glutamine (Omega), and 1% penicillin/streptomycin (Omega). The media for the cells were renewed every 3 days and kept at 80-90% confluency. Cells were maintained in a humidified environment at 37° C. and 5% CO2.
IMR-90 (1500 cells/well) and A549 (750 cells/well) were seeded on 384-well microplates (Grenier Bio-One) and incubated for 3 hours before the addition of kinase inhibitor(s). The reason that IMR-90 was seeded at double the cell density of A549 is due to the difference in cell division. IMR-90's doubling time is 36-48 hours whereas A549's is 22 hours. […] Furthermore, both A549's and IMR-90's final confluency at 72 hrs is 90-95% and within the range of the ATPlite 1 step assay. ECHO 555 Liquid Handler (Labcyte) was used to dispense nanoliter volumes of each KI to 384-well plates with cells attached (wet dispense). The final volume in the plate is 40 uL and cells were incubated for 72 hours with KI treatment.
ATPlite 1 Step (Perkin Elmer) was used to evaluate the cell number and cytotoxicity. ATP measurements were done by dispensing 20 uL of the ATPlite 1 Step solution to each well to a final volume of 60 uL. The plate was placed on a shaker at 1100 rpm and the luminescence activity was detected by Analyst GT Plate Reader. The percent (%) of control is the quantity of ATPlite 1 step measurement of the treated versus the untreated wells of each individual cell type.
The 244 kinase inhibitors (KIs) of the EMD drug library were screened at 1000 nM individually and the treatment lasted for 72 hours.
where vN indicates the viability of normal cells (IMR90) after treatment, and vc the viability of cancer cells (A549) after treatment. […] For the other 243 KIs we used the standard dose of 1000 nM.
Consider `Nc1cccc(-c2cc3c(Oc4cccc(O)c4)ncnc3[nH]2)c1` [M16, GSK3b In. XII, TWS119], for which the “selectivity rank in primary screen (IMR-90 to A549 viability ratio)” value was “top ten most selective”.
As for `Nc1nc(Nc2ccc(S(N)(=O)=O)cc2)nn1C(=S)Nc1c(F)cccc1F` [C16, Cdk1/2 In. III], the “selectivity rank in primary screen (IMR-90 to A549 viability ratio)” value is reported as “top ten most selective”.
On to `Cc1cc(I)ccc1Nc1c(C(=O)NOCC2CC2)cc(F)c(F)c1F` [H15, MEK1/2 In. II], for which the “selectivity rank in primary screen (IMR-90 to A549 viability ratio)” value is on record as “top ten most selective”.
Still for that read-out and setting: then `Cc1ccc([N+](=O)[O-])cc1S(=O)(=O)N(C)/N=C/c1cnc2ccc(Br)cn12.Cl` [L13, PI 3-Kα In. VIII], with “top ten most selective”; and `CC(C)c1nn(-c2c(Cl)cccc2Cl)c2nc(Cc3ccc(OCCO)cc3)[nH]c(=O)c12` [E20, Cdk/Crk In.], with “top ten most selective”.
With `COc1ccc2c(c1)/C(=C/c1cnc[nH]1)C(=O)N2` [O20, SU9516], the “selectivity rank in primary screen (IMR-90 to A549 viability ratio)” value is recorded as “top ten most selective”.
For `NS(=O)(=O)c1ccc(N=Nc2c(O)[nH]c3ccc(Br)cc23)cc1` [D07, Cdk2 In. II], the “selectivity rank in primary screen (IMR-90 to A549 viability ratio)” value was “top ten most selective”.
`O=C1c2ccccc2-[n+]2ccc3c([nH]c4ccccc43)c21` [G10, Fascaplysin, Synthetic]: the “selectivity rank in primary screen (IMR-90 to A549 viability ratio)” value is given as “top ten most selective”.
As to `c1nc2nc(Nc3ccc(N4CCOCC4)cc3)nc(NC3CCCCC3)c2[nH]1` [N05, Reversine], the “selectivity rank in primary screen (IMR-90 to A549 viability ratio)” value was “top ten most selective”.
Same read-out and setting: then `O=C1c2ccccc2-c2nc3nnnn3nc21` [A15, PDK1/Akt1/Flt3 Dual Pathway Inhibitor], with “top ten most selective”.

Staying with this assay, now noted: single drugs at 1000 nM, 72 hours, 244 KIs screened; FIG. 2; listed as PDK1/Akt1/Flt3 Dual Pathway Inhibitor.
On to `O=C1c2ccccc2-c2nc3nnnn3nc21` [A15, PDK1/Akt1/Flt3 Dual Pathway Inhibitor], for which the “selectivity rank in primary screen (IMR-90 to A549 viability ratio)” value is given as “top hit”.

The next assay has as its system primary myoblasts. Kind of assay: Protection of primary myoblasts against 0.1% hypoxia (viability screen). Format: cell-based. The following applies: single-drug screening of EMD library. The source says:
We used our method to predict synergistic effects between four kinase inhibitors: G13, O20, I15, and K10. […] Out of 244 drugs from the EMD library of kinase inhibitors, we first selected 58 drugs that have a positive effect on cell survivability against hypoxia. Single-drug screening results with these drugs were used as a training set to build a regression model that uses the kinase catalytic activity as predictor of the viability. The model assumed a dependence of the viability Vii of the form of Equation (V)
For `COc1ccc2c(c1)/C(=C/c1cnc[nH]1)C(=O)N2` [O20, SU9516], the “protection of primary myoblasts against hypoxia” value is “protect primary myoblasts against 0.1% hypoxia”.
